Columns and labels:
[1] = biological target: CYP2C19 (Homo sapiens (Human), UniProt P33261); test: CYP inhibition assay; assay type: in vitro ADME; conditions: pooled human liver microsomes; extrapolated IC50 derived from 3 μM; read-out: IC50 (μM) of CYP isoforms, 2C19
Description: (§1) The ability of substances to inhibit CYP1A2, CYP2C9, CYP2D6, CYP2C19, CYP2J2 and CYP3A4 in humans was investigated with pooled human liver microsomes as enzyme source in the presence of standard substrates (see below) which form CYP-isoform-specific metabolites.
(§2) Standard incubation mixtures comprise NADPH and substrates in 100 mM phosphate buffer (pH 7.4) in a total volume of 200 μl. Test compound are dissolved in acetonitrile. Incubated with pooled human liver microsomes at 37° C. for a defined time. The reactions are stopped by adding 100 μl of acetonitrile in which a suitable internal standard is always present. Precipitated proteins are removed by centrifugation, and the supernatants analyzed by LC-MS/MS. The data represents the extrapolated IC50 (μM) concentration derived from 3 μM.

[2] = biological target: CYP2C9 (Homo sapiens (Human), UniProt P11712); test: CYP inhibition assay; assay type: in vitro ADME; conditions: pooled human liver microsomes; extrapolated IC50 derived from 3 μM; read-out: IC50 (μM) of CYP isoforms, 2C9
Sequence of CYP2C9 (P11712 whole entry, canonical isoform): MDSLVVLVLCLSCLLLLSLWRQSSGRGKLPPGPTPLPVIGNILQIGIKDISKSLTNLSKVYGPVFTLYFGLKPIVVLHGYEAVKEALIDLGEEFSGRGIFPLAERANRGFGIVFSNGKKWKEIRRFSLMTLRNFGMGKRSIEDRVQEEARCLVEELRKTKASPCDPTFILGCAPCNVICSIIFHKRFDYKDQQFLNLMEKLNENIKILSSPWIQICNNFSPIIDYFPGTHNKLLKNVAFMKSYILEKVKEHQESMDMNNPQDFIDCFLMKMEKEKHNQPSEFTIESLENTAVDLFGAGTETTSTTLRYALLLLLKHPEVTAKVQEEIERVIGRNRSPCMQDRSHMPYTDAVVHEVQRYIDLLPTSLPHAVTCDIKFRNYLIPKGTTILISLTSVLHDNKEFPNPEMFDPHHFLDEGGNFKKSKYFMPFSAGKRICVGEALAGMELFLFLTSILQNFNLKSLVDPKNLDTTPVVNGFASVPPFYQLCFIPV
Description: as §1, §2

[3] = biological target: CYP2D6 (Homo sapiens (Human), UniProt P10635); test: CYP inhibition assay; assay type: in vitro ADME; conditions: pooled human liver microsomes; extrapolated IC50 derived from 3 μM; read-out: IC50 (μM) of CYP isoforms, 2D6
Sequence of CYP2D6 (P10635 whole entry, canonical isoform): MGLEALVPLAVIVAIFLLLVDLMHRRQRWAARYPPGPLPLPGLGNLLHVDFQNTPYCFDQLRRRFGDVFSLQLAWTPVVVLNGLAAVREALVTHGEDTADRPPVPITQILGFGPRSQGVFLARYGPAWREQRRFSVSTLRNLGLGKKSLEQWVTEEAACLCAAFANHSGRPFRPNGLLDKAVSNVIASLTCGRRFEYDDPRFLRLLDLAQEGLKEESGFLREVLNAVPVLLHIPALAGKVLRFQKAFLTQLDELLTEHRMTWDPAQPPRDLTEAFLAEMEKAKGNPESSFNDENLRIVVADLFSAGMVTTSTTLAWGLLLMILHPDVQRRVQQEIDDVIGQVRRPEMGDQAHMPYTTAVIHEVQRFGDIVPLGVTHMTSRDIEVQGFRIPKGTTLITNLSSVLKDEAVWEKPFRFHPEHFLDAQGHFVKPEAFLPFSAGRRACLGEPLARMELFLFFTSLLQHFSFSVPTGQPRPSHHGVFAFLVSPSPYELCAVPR
Description: as §1, §2

[4] = biological target: CYP2J2 (Homo sapiens (Human), UniProt P51589); test: CYP inhibition assay; assay type: in vitro ADME; conditions: pooled human liver microsomes; extrapolated IC50 derived from 3 μM; read-out: IC50 (μM) of CYP isoforms, 2J2
Sequence of CYP2J2 (P51589 whole entry, canonical isoform): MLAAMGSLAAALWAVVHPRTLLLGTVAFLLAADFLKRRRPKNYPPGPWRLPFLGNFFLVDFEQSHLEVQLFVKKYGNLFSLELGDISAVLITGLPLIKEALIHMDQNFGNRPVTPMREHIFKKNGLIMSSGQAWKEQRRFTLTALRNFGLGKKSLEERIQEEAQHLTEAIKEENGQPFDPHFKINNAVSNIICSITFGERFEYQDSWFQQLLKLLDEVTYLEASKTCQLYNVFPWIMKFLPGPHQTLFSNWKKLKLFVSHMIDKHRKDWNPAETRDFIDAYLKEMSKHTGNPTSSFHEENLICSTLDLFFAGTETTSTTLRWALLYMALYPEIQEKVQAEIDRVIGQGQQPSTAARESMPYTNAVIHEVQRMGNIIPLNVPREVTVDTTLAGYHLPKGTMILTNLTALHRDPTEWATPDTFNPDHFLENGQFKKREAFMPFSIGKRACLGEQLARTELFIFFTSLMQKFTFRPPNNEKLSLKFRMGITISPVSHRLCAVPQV
Description: as §1, §2

[5] = test system: plasma protein; test: Plasma protein binding (human); assay type: in vitro ADME
Description: A compound solution (1 mM in DMSO) (5 μL), according to the invention is added to the respective plasma matrices of rat or human or mouse (1 ml).
Add 150 ul of phosphate buffer to receiving side of the dialysis well. […] Precipitate with Acetonitrile and dilute samples prior to analysis in 1.5 ml polypropylene tubes. Remove 50 μl from the sample side of dialysis well and add 50 μl of phosphate buffer +300 μl of acetonitrile containing IS. Remove 50 μl from the buffer side of the dialysis well and add 50 μl of respective matrix plasma +300 μl of ACN. Then vortexed and centrifuged for 5 min, and supernatant is taken and injected into LCMS.
Different test concentration ranging from 0.1 μM to 20 μM are made in methanol:water (90:10). Test solutions are added to the premixed matrix containing plasma:phosphate buffer (50:50). Precipitate with 300 μl of ice cold acetonitrile containing IS, vortexes and centrifuged. Supernatant is taken and injected into LCMS. Percentage of plasma protein binding was obtained via Equation(2):% Fraction unbound=(concentration on the buffer side/concentration on the sample side)*100 Table-7

[6] = Intravenous and oral pharmacokinetics in Wistar rats; assay type: in vivo; conditions: for plasma exposure (AUC, C max) as compared to Rivaroxaban: Wistar rats, IV 1 mg/kg and PO 10 mg/kg
Description: On the day before administration of the substance, a catheter for obtaining blood is implanted in the jugular vein of the experimental animals (male Wistar rats, body weight 200-250 g) under Isofluran® anesthesia.
Blood samples (8-12 time points) are taken through the catheter sequentially over the course of 24 h after administration of the substance. The administration volume is 10 ml/kg for oral and 1 ml/kg for IV in male Wistar rats. Intravenous administration is via a formulation of 2% N—N Dimethyl acetamide/ethanol 10%/PEG400 (30%)/water for IV injection (58%) and via Tween80/PEG400/sterile water in the case of oral administration. Removal of blood is after 0.08, 0.25, 0.5, 1, 2, 3, 4, 6, 8 and 12 hours in the case of IV and, blood withdrawn after 0.25, 0.5, 1.0, 2, 3, 4, 6, 8 and 12 hours for oral administration.
Plasma is obtained by centrifuging the samples in heparinized tubes. IS containing Acetonitrile is added to a defined plasma volume per time point to precipitate proteins. After centrifugation, compound formula (B) and, where appropriate, known cleavage products of the compound formula (B) in the supernatant are determined quantitatively using a suitable LC/MS-MS method.
The measured plasma concentrations are used to calculate pharmacokinetic parameters of the test substance and of the active ingredient compound (A) liberated there from, such as AUC, Cmax, T½ (half-life) and CL (clearance).
Acetonitrile containing IS is added to the study samples, calibration samples and QCs, and the protein is precipitated using acetonitrile. Vortexed and centrifuged at 4000 rpm and the supernatant is injected by LC-MS/MS (API 4000, AB Sciex). Chromatographic separation is carried out on an Shimadzu UFLC. The injection volume is 10 μl. The separation column used is a Phenomenex Gemini NX 4.6×5μ. 100 mm, adjusted to a temperature of 30° C. […]
The plasma concentration/time plots determined are used to calculate the pharmacokinetic parameters such as AUC, Cmax, MRT (mean residence time), t½ (half life) and CL (clearance) employing the validated pharmacokinetic calculation programs.

Sequence of CYP2C19 (P33261 whole entry, canonical isoform): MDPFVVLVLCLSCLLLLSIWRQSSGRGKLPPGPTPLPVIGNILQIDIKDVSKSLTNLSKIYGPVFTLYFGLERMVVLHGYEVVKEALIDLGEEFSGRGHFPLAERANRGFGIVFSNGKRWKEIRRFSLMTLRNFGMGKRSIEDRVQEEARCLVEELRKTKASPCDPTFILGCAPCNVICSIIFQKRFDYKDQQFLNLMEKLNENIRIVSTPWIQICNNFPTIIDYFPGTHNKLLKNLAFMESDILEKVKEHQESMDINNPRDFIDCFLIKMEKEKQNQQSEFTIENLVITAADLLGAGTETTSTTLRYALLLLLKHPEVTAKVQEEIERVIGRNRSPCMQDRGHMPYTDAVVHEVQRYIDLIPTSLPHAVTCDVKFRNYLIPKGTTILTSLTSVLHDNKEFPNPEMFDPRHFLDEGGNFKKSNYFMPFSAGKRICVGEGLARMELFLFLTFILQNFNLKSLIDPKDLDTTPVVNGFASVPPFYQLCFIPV

- IC50 [1]: 25.3 µM
- IC50 [2]: 22.4 µM
- IC50 [3]: 8.2 µM
- IC50 [4]: 6.7 µM
- Observation: amount of test product [5]: Not quantificable amount
- Observation: formed Rivaroxaban bound to plasma protein [5]: found to be High bound to
- plasma exposure (AUC, C max) as compared to Rivaroxaban [6]: increased exposure
- plasma exposure (AUC, C max) as compared to Rivaroxaban ([6]; listed as Test product): higher
- detectability of test substance in plasma ([6]; after i.v. administration, at the first measurement point): no longer detectable in plasma
Compound: O=CN(C[C@H]1CN(c2ccc(N3CCOCC3=O)cc2)C(=O)O1)C(=O)c1ccc(Cl)s1 [Compound formula B, 5-chloro-N-formyl-N-({(5S)-2-oxo-3-[4-(3-oxomorpholin-4-yl)phenyl]-1,3-oxazolidin-5-yl}methyl)thiophene-2-carboxamide]
